Assay results taken from patent publication US20030083271A1, “Topoisomerase I selective cytotoxic sugar derivatives of indolopyrrolocarbazoles” (priority 2001, published 2003).
Marks after values point to notes of the source that are not given here.

Experiments:
[1] = target: T1, purified human topoisomerase I (Homo sapiens, UniProt P11387); experiment: Topoisomerase I-mediated single strand DNA break induction (in vitro); format: biochemical; conditions: median effect concentration for inducing single-strand breaks in the DNA substrate; read-out: Topo I EC50
T1 construct: purchased Topogen
T1 sequence (P11387 1-765): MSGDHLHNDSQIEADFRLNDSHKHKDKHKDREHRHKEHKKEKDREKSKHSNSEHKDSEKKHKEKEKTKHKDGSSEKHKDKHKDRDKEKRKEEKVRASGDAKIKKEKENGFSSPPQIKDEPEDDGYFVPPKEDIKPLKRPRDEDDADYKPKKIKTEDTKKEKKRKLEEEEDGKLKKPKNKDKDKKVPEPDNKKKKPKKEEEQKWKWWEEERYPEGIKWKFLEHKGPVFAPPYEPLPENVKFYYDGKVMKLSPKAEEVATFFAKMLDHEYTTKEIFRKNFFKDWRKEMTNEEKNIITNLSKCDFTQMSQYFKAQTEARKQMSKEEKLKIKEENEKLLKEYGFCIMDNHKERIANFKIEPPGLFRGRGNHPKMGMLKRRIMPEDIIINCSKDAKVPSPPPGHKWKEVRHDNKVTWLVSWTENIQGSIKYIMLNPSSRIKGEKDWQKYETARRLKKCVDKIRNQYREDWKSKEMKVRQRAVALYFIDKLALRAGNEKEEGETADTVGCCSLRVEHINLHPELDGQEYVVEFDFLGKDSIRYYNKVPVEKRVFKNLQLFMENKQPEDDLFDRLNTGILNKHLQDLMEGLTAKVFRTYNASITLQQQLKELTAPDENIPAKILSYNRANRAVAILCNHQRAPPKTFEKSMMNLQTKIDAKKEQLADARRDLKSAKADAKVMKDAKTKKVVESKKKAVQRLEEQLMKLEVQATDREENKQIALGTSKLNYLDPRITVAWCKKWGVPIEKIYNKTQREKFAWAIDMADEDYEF
Method in brief: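 Supercoiled PM2 DNA incubated with compound dilutions and 1000 units purified human topoisomerase I, 30 min at 37° C; stopped with SDS/proteinase K. Products separated on ethidium-stained agarose gel, quantified by densitometry as % single-strand breaks; EC50 interpolated from dose-effect curve.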

[2] = system: HT-29 colon carcinoma; experiment: In vivo antitumor activity, HT-29 xenograft; parameters: species or system Balb/c athymic (nude) female mice; conditions: for LCK (gross log cell kill): HT29 sc xenograft in nude mice, at optimal or maximum tolerated dose, CPT-11 run as comparator in same experiment; for MTD (optimal or maximum tolerated dose level tested): HT29 xenograft experiment, nude mice
Description: (§1) Compounds: Examples of this invention were administered in an appropriate vehicle such as cremophor/ethanol/water (10%/10%/80%), in normal saline, water/carboxymethylcellulose vehicle.
(§2) All compounds were tested at several dose levels, with attempts each time to achieve their maximum tolerated dose (MTD). […] The optimal dose (OD) was the dose producing the best therapeutic effect, and was usually, but not always, synonymous with the MTD.
(§3) Tumors: Human tumors (HCT-116 and HT-29 colon carcinomas) were grown as xenografts in Balb/c athymic (nude) female mice. Antitumor assays. All tumors were implanted subcutaneously (sc) as 3-4mm fragments using a 13 gauge trochar. There were generally eight mice per treatment and control group. When treatment was delayed until tumors had obtained a certain size (weight), referred to as a staged tumor experiment (expt.), tumor-bearing mice were selected so that their tumors fell within a limited range of sizes for the particular expt.
(§4) Tumors were measured by calipers, and tumor weight calculated by the formula length (mm) times (×) width (mm)^2/2=tumor weight (mg). The median time (in days) to reach a predetermined tumor target size (for example, 500 mg) for untreated, control (C) mice relative to the time to reach the same target size for treated (T) mice, was calculated as a T-C value. T-C values were divided by the tumor volume doubling time (TVDT), and multiplied by 3.32, to yield a gross log cell kill (LCK) value, [i.e., (T-C)/TVDT×3.32=LCK].
(§5) A mouse was considered cured if there was no palpable tumor after a period of time equal to 10×TVDT post-reatment (Rx).

[3] = system: HCT-116 colon carcinoma; experiment: In vivo antitumor activity, HCT-116 xenograft; parameters: species or system Balb/c athymic (nude) female mice; conditions: for LCK (gross log cell kill): HT116 sc xenograft in nude mice, at optimal or maximum tolerated dose, CPT-11 run as comparator in same experiment; for MTD (optimal or maximum tolerated dose level tested): HT116 xenograft experiment, nude mice
Description: as §1, §2, §3, §4, §5

Row | SMILES | EC50 [1] [nM] | LCK (gross log cell kill) [2] | MTD (optimal or maximum tolerated dose level tested) [2] [mpkpi] | LCK (gross log cell kill) [3] | MTD (optimal or maximum tolerated dose level tested) [3] [mpkpi]
1 | O=C1NC(=O)c2c1c1c3cc(F)c(F)cc3sc1c1c2c2cc(F)c(F)cc2n1[C@@H]1O[C@H](CF)C[C@H](O)[C@H]1O [Example 9, 12-[4,6-Dideoxy-6-fluoro-β-D-glucopyranosyl]-2,3,9,10-tetrafluoro-5H, 13H-benzo[b]thienyl[2,3-a]pyrrolo[3,4-c]carbazole-5,7(6H)-dione] | 230 | >1.4 | >22 | >3.4 | >22
2 | O=C1NC(=O)c2c1c1c3cc(F)ccc3[nH]c1c1c2c2cc(F)ccc2n1[C@@H]1O[C@H](CO)[C@@H](F)[C@H](O)[C@H]1O [Example 24, 12-[4-Deoxy-4-fluoro-β-D-glucopyranosyl]-3,9-difluoro-12,13-dihydro-5H-indolo[2,3-a]pyrrolo[3,4-c]carbazole-5,7(6H)-dione] | 20 | 2.1 | 15 | 1.3 | 10
3 | O=C1NC(=O)c2c1c1c3cc(F)c(F)cc3sc1c1c2c2cc(F)c(F)cc2n1[C@@H]1O[C@H](CF)[C@@H](F)[C@H](O)[C@H]1O [Example 26, 12-[4,6-Difluoro-4,6-dideoxy-β-D-glucopyranosyl]-2,3,9,10-tetrafluoro-5H, 13H-benzo[b]thienyl[2,3-a]pyrrolo[3,4-c]carbazole-5,7(6H)-dione] | 130 | 1.4 | >9 | >3.4 | >9
4 | O=C1NC(=O)c2c1c1c3cc(F)ccc3[nH]c1c1c2c2cc(F)ccc2n1[C@@H]1O[C@H](CF)[C@@H](F)[C@H](O)[C@H]1O [Example 27] | 150 | 1.9^a | 11 | >1.4^c | 8
5 | O=C1NC(=O)c2c1c1c3cc(F)c(F)cc3sc1c1c2c2cc(F)c(F)cc2n1[C@@H]1O[C@H](CO)[C@@H](F)[C@H](O)[C@H]1O [Example 33, 12-[4-Deoxy-4-fluoro-β-D-glucopyranosyl]-2,3,9,10-tetrafluoro-5H,13H-benzo[b]thienyl[2,3-a]pyrrolo[3,4-c]carbazole-5,7(6H)-dione] | 50 | >2.3^b | 11 | 2.3 | 10
